Results on ten compounds are retold here after patent US11926602B1, “4-amino-5-(4-fluoro-3-phenoxyphenyl)-4H-1,2,4-triazole-3-thiol derivatives as antifungal agents” (KING FAISAL UNIVERSITY, priority 2023, dated 2024).

In brackets after ≈: the same amount, converted by molar mass.

Series [1] concerns Candida tropicalis (ATCC RCMB 05064). In words: Antifungal microdilution assay, MIC against Candida tropicalis. It counts as cell-based. The following applies: RCMB05064, 0.49-125 μg/mL tested over 48 h, read-out: Minimum inhibitory concentration C. tropicalis. How it is done: (§1) The calculation of the minimum inhibitory concentrations (MICs) for the tested compounds was done against Candida parapsilosis (ATCC RCMB 05064); Candida albicans (ATCC RCMB 05064): Candida tropicalis (ATCC RCMB 05064); Aspergillus niger (ATCC RCMB 05064); Trichophyton rubrum (ATCC RCMB 05064). Microdilution assay was used to evaluate the tested compounds (2, 2a-2h) for their antifungal activity (Anaissie, E. J.; Paetznick, V. L.; Ensign, L. G.; Espinel-Ingroff, A.; Galgiani, J. N.; Hitchcock, C. A.; LaRocco. M.; Patterson. T.; Pfaller, M. A.; Rex, J. H.; et al. Microdilution antifungal susceptibility testing of Candida albicans and Cryptococcus neoformans with and without agitation: An eight-center collaborative study. Antimicrob. Agents Chemother. 1996, 40, 2387-2391). Different concentrations were tested from each compound; 0.49, 0.98, 1.95, 3.9, 7.81, 15.63, 31.25, 62.5, and 125 μg/mL over 48 h.
(§2) The observed antifungal activity of the present 4-amino-5-(4-fluoro-3-phenoxyphenyl)-4H-1,2,4-triazole-3-thiol (2) and its derivatives (2a-h) against various fungi are summarized below in Table 2.
In general terms: In broth dilution the organism is exposed to a series of concentrations in liquid medium.

Series [2] relates to Candida parapsilosis (ATCC RCMB 05064). In words: Antifungal microdilution assay, MIC against Candida parapsilosis. It counts as cell-based. The following applies: Lodderomyces parapsilosis, RCMB05064, 0.49-125 μg/mL tested over 48 h, read-out: Minimum inhibitory concentration C. parapsilosis. How it is done:
as §1, §2

Series [3] has as its system Candida albicans (ATCC RCMB 05064). In words: Antifungal microdilution assay, MIC against Candida albicans. It counts as cell-based. The following applies: RCMB05064, 0.49-125 μg/mL tested over 48 h, read-out: Minimum inhibitory concentration C. albicans. How it is done: as §1, §2
The test system of series [4] is Aspergillus niger (ATCC RCMB 05064). In words: Antifungal microdilution assay, MIC against Aspergillus niger. It counts as cell-based. The following applies: RCMB05064, 0.49-125 μg/mL tested over 48 h, read-out: Minimum inhibitory concentration A. niger. How it is done: as §1, §2
The subject of series [5] is Trichophyton rubrum (ATCC RCMB 05064). Description: Antifungal microdilution assay, MIC against Trichophyton rubrum. It counts as cell-based. The following applies: RCMB05064, 0.49-125 μg/mL tested over 48 h, read-out: Minimum inhibitory concentration T. rubrum. The protocol: as §1, §2

With `CSc1nnc(-c2ccc(F)c(Oc3ccccc3)c2)n1N` [Compound 2f, 3-(4-Fluoro-3-phenoxyphenyl)-5-(methylthio)-4H-1,2,4-triazol-4-amine], the melting point came out at 152 °C. Further, in series [1], the MIC was found to be 7.81 µg/mL (≈ 24.7 µM). For the same compound, the MIC in series [2] came out at 3.9 µg/mL (≈ 12.3 µM). Moreover, the MIC in series [3] was found to be 7.81 µg/mL (≈ 24.7 µM). Moreover, the MIC in series [4] is 3.9 µg/mL (≈ 12.3 µM). Besides, in series [5], the MIC was 7.81 µg/mL (≈ 24.7 µM).

Consider `C=CCSc1nnc(-c2ccc(F)c(Oc3ccccc3)c2)n1N` [Compound 2h, 3-(Allylthio)-5-(4-fluoro-3-phenoxyphenyl)-4H-1,2,4-triazol-4-amine], for which the melting point was found to be 128 °C. Moreover, in series [1], the MIC turned out to be 0.49 µg/mL (≈ 1.43 µM). The MIC in series [2] was found to be 0.49 µg/mL (≈ 1.43 µM). In addition, the MIC in series [3] worked out at 0.98 µg/mL (≈ 2.86 µM). For the same compound, the MIC in series [4] came to 0.98 µg/mL (≈ 2.86 µM). Further, in series [5], the MIC amounted to 1.95 µg/mL (≈ 5.7 µM).

Compound `Fc1ccc(-c2n[nH]c(=S)n2/N=C/c2ccc(Cl)cc2)cc1Oc1ccccc1` [Compound 2b] gave a melting point of 174 °C. The MIC in series [1] amounted to 62.5 µg/mL (≈ 147 µM). Further, in series [2], the MIC worked out at 15.6 µg/mL (≈ 36.8 µM). The MIC in series [3] was 31.2 µg/mL (≈ 73.5 µM). For the same compound, the MIC in series [4] was found to be 31.2 µg/mL (≈ 73.5 µM). Also, the MIC in series [5] turned out to be 62.5 µg/mL (≈ 147 µM).

`Fc1ccc(-c2n[nH]c(=S)n2/N=C/c2ccccc2)cc1Oc1ccccc1` [Compound 2a] returned a melting point of 189 °C. For the same compound, the MIC in series [1] was 0.98 µg/mL (≈ 2.51 µM). The MIC in series [2] was 0.98 µg/mL (≈ 2.51 µM). Besides, the MIC in series [3] worked out at 1.95 µg/mL (≈ 4.99 µM). In addition, the MIC in series [4] came out at 1.95 µg/mL (≈ 4.99 µM). Further, the MIC in series [5] was determined as 1.95 µg/mL (≈ 4.99 µM).

For the compound `Fc1ccc(-c2n[nH]c(=S)n2/N=C/c2cccc(Oc3ccccc3)c2)cc1Oc1ccccc1` [Compound 2e], the melting point came out at 132 °C. The MIC in series [1] stood at 1.95 µg/mL (≈ 4.04 µM). Besides, the MIC in series [2] is 1.95 µg/mL (≈ 4.04 µM). Further, in series [3], the MIC was determined as 1.95 µg/mL (≈ 4.04 µM). Further, in series [4], the MIC is 3.9 µg/mL (≈ 8.08 µM). Also, the MIC in series [5] is 7.81 µg/mL (≈ 16.2 µM).

In the case of `Nn1c(S)nnc1-c1ccc(F)c(Oc2ccccc2)c1` [Compound 2, 4-amino-5-(4-fluoro-3-phenoxyphenyl)-4H-1,2,4-triazole-3-thiol], the melting point lay within 205 to 207 °C. The MIC in series [1] was determined as 3.9 µg/mL (≈ 12.9 µM). The MIC in series [2] stood at 1.95 µg/mL (≈ 6.45 µM). In addition, the MIC in series [3] was found to be 3.9 µg/mL (≈ 12.9 µM). The MIC in series [4] worked out at 7.81 µg/mL (≈ 25.8 µM). The MIC in series [5] amounted to 3.9 µg/mL (≈ 12.9 µM).

`Fc1ccc(-c2nn(CN3CCOCC3)c(=S)n2/N=C/c2ccc(Cl)cc2)cc1Oc1ccccc1` [Compound 2c] showed a melting point of 146 °C. Besides, the MIC in series [1] amounted to 32.2 µg/mL (≈ 61.5 µM). The MIC in series [2] is 15.6 µg/mL (≈ 29.8 µM). In addition, the MIC in series [3] amounted to 15.6 µg/mL (≈ 29.8 µM). Further, the MIC in series [4] was found to be 15.6 µg/mL (≈ 29.8 µM). Moreover, the MIC in series [5] was determined as 32.2 µg/mL (≈ 61.5 µM).

In turn, `Fc1ccc(/C=N/n2c(-c3ccc(F)c(Oc4ccccc4)c3)n[nH]c2=S)cc1` [Compound 2d] yielded a melting point of 172 °C. Also, the MIC in series [1] was 15.6 µg/mL (≈ 38.3 µM). The MIC in series [2] turned out to be 7.81 µg/mL (≈ 19.1 µM). Further, the MIC in series [3] was determined as 7.81 µg/mL (≈ 19.1 µM). Moreover, the MIC in series [4] is 7.81 µg/mL (≈ 19.1 µM). Also, the MIC in series [5] worked out at 15.6 µg/mL (≈ 38.3 µM).

In the case of `OC(Cn1cncn1)(Cn1cncn1)c1ccc(F)cc1F` [Fluconazole, reference compound], the MIC in series [1] stood at 0.98 µg/mL (≈ 3.2 µM); in series [2] it was 0.49 µg/mL (≈ 1.6 µM); in series [3], 0.49 µg/mL (≈ 1.6 µM); in series [4], 0.49 µg/mL (≈ 1.6 µM); in series [5] it was 1.95 µg/mL (≈ 6.37 µM).

`Nn1c(SCc2cnc(Cl)s2)nnc1-c1ccc(F)c(Oc2ccccc2)c1` [Compound 2g, 3-(((2-Chlorothiazol-5-yl)methyl)thio)-5-(4-fluoro-3-phenoxyphenyl)-4H-1,2,4-triazol-4-amine] registered a melting point of 136 °C. The MIC in series [1] was 0.49 µg/mL (≈ 1.13 µM). Moreover, the MIC in series [2] was found to be 0.49 µg/mL (≈ 1.13 µM). Also, the MIC in series [3] came to 0.49 µg/mL (≈ 1.13 µM). The MIC in series [4] worked out at 0.98 µg/mL (≈ 2.26 µM). Besides, the MIC in series [5] was determined as 0.98 µg/mL (≈ 2.26 µM).

What is called melting point is the temperature, or range, at which the solid turns liquid.
